Drawing on patent publication US20250339450A1, “TREATMENT OF SYNGAP1 ENCEPHALOPATHY” (Harmony Biosciences Management, Inc., priority 2019, published 2025), this text covers seizure reductions for one compound.

The subject of this assay is patients with SYNGAP1. The assay can be described thus: Four patients with SYNGAP1 in Study ZYN2-CL-025 (BELIEVE). The assay is classed as in vivo, human. Conditions: SYNGAP1 encephalopathy patients; across the 26-week treatment period; transdermal. The text has this:
The trial summarized in the examples—a Phase 2 open label clinical trial—assessed the safety and efficacy of transdermal administration of CBD in a heterogeneous group of SYNGAP1 encephalopathy and other rare developmental and epileptic encephalopathies (DEEs), including but not limited to Dravet Syndrome (DS) and Lennox-Gastaut Syndrome (LGS). Some of the most common and debilitating SYNGAP1 encephalopathy seizure types are focal impaired-awareness and convulsive seizures. Patients with SYNGAP1 encephalopathy who experienced these seizure types, such as SYNGAP1 seizures, experienced seizure reductions of up to 73% across the 26-week treatment period. Qualitative assessments by caregivers in the study indicate improved behavioral problems including improved mood, engagement with others, learning ability, alertness, school attendance, as well as cognitive symptoms.
This was a sequential, multi-stage, open-label, multi-national, multiple-center, multiple-dose study to assess the long-term safety and tolerability of ZYN002 (transdermal CBD gel) in child and adolescent epilepsy patients from 3 to 18 years of age having seizures associated with developmental and epileptic encephalopathies (DEE) according to the International League Against Epilepsy (ILEA) classification (Scheffer et al. 2017). […]

On to `C=C(C)C1CCC(C)=CC1c1c(O)cc(CCCCC)cc1O` (stereo not shown) [CBD, 2-[3-methyl-6-(1-methylethenyl)-2-cyclohexen-1-yl]-5-pentyl-1,3-benzenediol], for which the seizure reductions result was “up to 73%”.
